Experimental data taken from patent US12516048B2, “B-lactam compounds, their preparation and use as antibacterial agents” (NINGXIA ACADEMY OF AGRICULTURE AND FORESTRY SCIENCES, priority 2020, dated 2026).

What was measured:
Assay in all cases: MIC determination, broth microdilution (CLSI)
Type in all cases: cell-based
E. cloacae 700323 = conditions: Enterobacter cloacae, Mueller Hinton Broth II, 37° C., 18-24 hours, read-out: Strain 6 MIC
Description: (§1) Compounds of this invention were tested for antimicrobial activity by determining minimum inhibitory concentrations (MICs, in μg/mL) using the broth microdilution method according to the guidelines of the Clinical Laboratories and Standards Institute (“Methods for Dilution Antimicrobial Susceptibility Tests for Bacteria that Grow Aerobically”, Approved standard, 7th ed., Clinical and Laboratory Standards Institute (CLSI) Document M7-A8, Wayne, Pa., USA, 2009.). AZT: aztreonam (AZT) and ceftazidime (CAZ) were used as control antibiotics. Test compounds were dissolved in DMSO. The compounds were then diluted in microbial growth medium (Mueller Hinton Broth II, cation adjusted) resulting in a final concentration range of 0.063-64 μg/mL in serial two-fold dilution. In all cases the final DMSO concentration was less than 0.5%. Bacteria were added to 96-well microtitre plates containing the two-fold dilutions of the compounds; the final cell density was approximately 5×10^5 colony forming units/mL (CFU/mL). Plates were incubated at 37° C. for 18-24 hours and read visually. The MIC, i.e. the lowest concentration of the test compound that inhibited visible growth of the bacteria, was recorded. The same assay conditions were used when the compounds of this invention were tested in combination with β-lactamase inhibitors. While the compounds of this invention were serially diluted as described above, a constant concentration of the inhibitor of 4 mg/L was used.
(§2) Bacterial strains that were used to evaluate the antimicrobial activity using the MIC determination included but were not limited to E. coli clinical isolate, E. coli 8739, K. pneumoniae clinical isolate, K. pneumoniae 700603, E. cloacae clinical isolate, E. cloacae 700323, A. baumannii clinical isolate, A. baumannii 19606, P. aeruginosa clinical isolate, P. aeruginosa 9027.

[1] = system: K. pneumoniae clinical isolate; conditions: Klebsiella pneumoniae, Mueller Hinton Broth II, 37° C., 18-24 hours, read-out: Strain 3 MIC
Description: as §1, §2

P. aeruginosa 9027 = conditions: Pseudomonas aeruginosa, Mueller Hinton Broth II, 37° C., 18-24 hours, read-out: Strain 10 MIC
Description: as §1, §2

[2] = system: E. cloacae clinical isolate; conditions: Enterobacter cloacae, Mueller Hinton Broth II, 37° C., 18-24 hours, read-out: Strain5 MIC
Description: as §1, §2

E. coli clinical isolate = conditions: Escherichia coli, Mueller Hinton Broth II, 37° C., 18-24 hours, read-out: Strain 1 MIC
Description: as §1, §2

A. baumannii 19606 = conditions: Acinetobacter baumannii, Mueller Hinton Broth II, 37° C., 18-24 hours, read-out: Strain8 MIC
Description: as §1, §2

K. pneumoniae 700603 = conditions: Klebsiella pneumoniae, Mueller Hinton Broth II, 37° C., 18-24 hours, read-out: Strain 4 MIC
Description: as §1, §2

E. coli 8739 = conditions: Escherichia coli, Mueller Hinton Broth II, 37° C., 18-24 hours, read-out: Strain 2 MIC
Description: as §1, §2

[3] = system: A. baumannii clinical isolate; conditions: Acinetobacter baumannii, Mueller Hinton Broth II, 37° C., 18-24 hours, read-out: Strain 7 MIC
Description: as §1, §2

[4] = system: P. aeruginosa clinical isolate; conditions: Pseudomonas aeruginosa, Mueller Hinton Broth II, 37° C., 18-24 hours, read-out: Strain 9 MIC
Description: as §1, §2

SMILES: Cc1sc(N)nc1/C(=N/O[C@@H](COc1ccc(C(=N)N[C@@H]2CCCNC2)cc1)C(=O)O)C(=O)N[C@@H]1C(=O)N(OS(=O)(=O)O)C1(C)C [Example 2, (S)-2-((((Z)-1-(2-Amino-5-methylthiazol-4-yl)-2-(((S)-2,2-dimethyl-4-oxo-1-(sulfooxy)azetidin-3-yl)amino)-2-oxoethylidene)amino)oxy)-3-(4-(N-((R)-piperidin-3-yl)carbamimidoyl)phenoxy)propanoic acid]
- MIC (E. cloacae 700323): 32 µg/mL
- MIC [1]: 32 µg/mL
- MIC (P. aeruginosa 9027): 32 µg/mL
- MIC [2]: 64 µg/mL
- MIC (E. coli clinical isolate): 4 µg/mL
- MIC (A. baumannii 19606): 16 µg/mL
- MIC (K. pneumoniae 700603): 64 µg/mL
- MIC (E. coli 8739): 2 µg/mL
- MIC [3]: 16 µg/mL
- MIC [4]: 8 µg/mL

SMILES: Cc1sc(N)nc1/C(=N/O[C@@H](COc1ccc(C(=N)N[C@@H]2CCNC2)cc1)C(=O)O)C(=O)N[C@@H]1C(=O)N(S(=O)(=O)O)[C@H]1C [Example 8, (S)-2-((((Z)-1-(2-amino-5-methylthiazol-4-yl)-2-(((2S,3S)-2-methyl-4-oxo-1-sulfoazetidin-3-yl)amino)-2-oxoethylidene)amino)oxy)-3-(4-(N-((R)-pyrrolidin-3-yl)carbamimidoyl)phenoxy)propanoic acid]
- MIC (E. cloacae 700323): 32 µg/mL
- MIC [1]: 32 µg/mL
- MIC (P. aeruginosa 9027): 1 µg/mL
- MIC [2]: 64 µg/mL
- MIC (E. coli clinical isolate): 1 µg/mL
- MIC (A. baumannii 19606): 16 µg/mL
- MIC (K. pneumoniae 700603): 64 µg/mL
- MIC (E. coli 8739): 0.5 µg/mL
- MIC [3]: 32 µg/mL
- MIC [4]: 16 µg/mL

SMILES: Cc1sc(N)nc1/C(=N/O[C@@H](COc1ccc(C(=N)NC2CNC2)cc1)C(=O)O)C(=O)N[C@@H]1C(=O)N(OS(=O)(=O)O)C1(C)C [Example 4, (S)-2-((((Z)-1-(2-Amino-5-methylthiazol-4-yl)-2-(((S)-2,2-dimethyl-4-oxo-1-(sulfooxy)azetidin-3-yl)amino)-2-oxoethylidene)amino)oxy)-3-(4-(N-(azetidin-3-yl)carbamimidoyl)phenoxy)propanoic acid]
- MIC (E. cloacae 700323): 32 µg/mL
- MIC [1]: 32 µg/mL
- MIC (P. aeruginosa 9027): 4 µg/mL
- MIC [2]: 32 µg/mL
- MIC (E. coli clinical isolate): 4 µg/mL
- MIC (A. baumannii 19606): 16 µg/mL
- MIC (K. pneumoniae 700603): 64 µg/mL
- MIC (E. coli 8739): 4 µg/mL
- MIC [3]: 32 µg/mL
- MIC [4]: 8 µg/mL

SMILES: C[C@H]1[C@H](NC(=O)/C(=N\OC(C)(C)C(=O)O)c2csc(N)n2)C(=O)N1S(=O)(=O)O [AZT, Aztreonam, reference compound]
- MIC (E. cloacae 700323): > 64 µg/mL
- MIC [1]: 64 µg/mL
- MIC (P. aeruginosa 9027): 16 µg/mL
- MIC [2]: > 64 µg/mL
- MIC (E. coli clinical isolate): > 64 µg/mL
- MIC (A. baumannii 19606): 32 µg/mL
- MIC (K. pneumoniae 700603): 64 µg/mL
- MIC (E. coli 8739): 16 µg/mL
- MIC [3]: > 64 µg/mL
- MIC [4]: > 64 µg/mL

SMILES: CC(C)(O/N=C(\C(=O)N[C@@H]1C(=O)N2C(C(=O)[O-])=C(C[n+]3ccccc3)CS[C@H]12)c1csc(N)n1)C(=O)O [CAZ, Ceftazidime, reference compound]
- MIC (E. cloacae 700323): > 64 µg/mL
- MIC [1]: > 64 µg/mL
- MIC (P. aeruginosa 9027): > 64 µg/mL
- MIC [2]: > 64 µg/mL
- MIC (E. coli clinical isolate): > 64 µg/mL
- MIC (A. baumannii 19606): > 64 µg/mL
- MIC (K. pneumoniae 700603): > 64 µg/mL
- MIC (E. coli 8739): > 64 µg/mL
- MIC [3]: > 64 µg/mL
- MIC [4]: > 64 µg/mL

SMILES: CC1(C)[C@H](NC(=O)/C(=N\O[C@@H](COc2ccc(C(=N)N[C@@H]3CCNC3)cc2)C(=O)O)c2nc(N)sc2C(F)(F)F)C(=O)N1OS(=O)(=O)O [Example 7, (S)-2-((((Z)-1-(2-Amino-5-(trifluoromethyl)thiazol-4-yl)-2-(((S)-2,2-dimethyl-4-oxo-1-(sulfooxy)azetidin-3-yl)amino)-2-oxoethylidene)amino)oxy)-3-(4-(N-((R)-pyrrolidin-3-yl)carbamimidoyl)phenoxy)propanoic acid]
- MIC (E. cloacae 700323): 32 µg/mL
- MIC [1]: 16 µg/mL
- MIC (P. aeruginosa 9027): 16 µg/mL
- MIC [2]: 32 µg/mL
- MIC (E. coli clinical isolate): 32 µg/mL
- MIC (A. baumannii 19606): 16 µg/mL
- MIC (K. pneumoniae 700603): 8 µg/mL
- MIC (E. coli 8739): 8 µg/mL
- MIC [3]: 16 µg/mL
- MIC [4]: 8 µg/mL

SMILES: Cc1sc(N)nc1/C(=N/O[C@@H](COc1ccc(C(=N)N[C@@H]2CCNC2)cc1)C(=O)O)C(=O)N[C@@H]1C(=O)N(OS(=O)(=O)O)C1(C)C [Example 6, (S)-2-((((Z)-1-(2-Amino-5-methylthiazol-4-yl)-2-(((S)-2,2-dimethyl-4-oxo-1-(sulfooxy)azetidin-3-yl)amino)-2-oxoethylidene)amino)oxy)-3-(4-(N-((R)-pyrrolidin-3-yl)carbamimidoyl)phenoxy)propanoic acid]
- MIC (E. cloacae 700323): 4 µg/mL
- MIC [1]: 1 µg/mL
- MIC (P. aeruginosa 9027): 2 µg/mL
- MIC [2]: 2 µg/mL
- MIC (E. coli clinical isolate): 1 µg/mL
- MIC (A. baumannii 19606): 8 µg/mL
- MIC (K. pneumoniae 700603): 1 µg/mL
- MIC (E. coli 8739): 0.25 µg/mL
- MIC [3]: 8 µg/mL
- MIC [4]: 2 µg/mL

SMILES: Cc1sc(N)nc1/C(=N/O[C@@H](COc1ccc(C(=N)N[C@H]2CCNC2)cc1)C(=O)O)C(=O)N[C@@H]1C(=O)N(OS(=O)(=O)O)C1(C)C [Example 3, (S)-2-((((Z)-1-(2-Amino-5-methylthiazol-4-yl)-2-(((S)-2,2-dimethyl-4-oxo-1-(sulfooxy)azetidin-3-yl)amino)-2-oxoethylidene)amino)oxy)-3-(4-(N-((S)-pyrrolidin-3-yl)carbamimidoyl)phenoxy)propanoic acid]
- MIC (E. cloacae 700323): 32 µg/mL
- MIC [1]: 32 µg/mL
- MIC (P. aeruginosa 9027): 8 µg/mL
- MIC [2]: 64 µg/mL
- MIC (E. coli clinical isolate): 4 µg/mL
- MIC (A. baumannii 19606): 32 µg/mL
- MIC (K. pneumoniae 700603): 64 µg/mL
- MIC (E. coli 8739): 4 µg/mL
- MIC [3]: 32 µg/mL
- MIC [4]: 8 µg/mL

SMILES: Cc1sc(N)nc1/C(=N/O[C@@H](COc1ccc(C(=N)NC2CCNCC2)cc1)C(=O)O)C(=O)N[C@@H]1C(=O)N(OS(=O)(=O)O)C1(C)C [Example 1, (S)-2-((((Z)-1-(2-Amino-5-methylthiazol-4-yl)-2-(((S)-2,2-dimethyl-4-oxo-1-(sulfooxy)azetidin-3-yl)amino)-2-oxoethylidene)amino)oxy)-3-(4-(N-(piperidin-4-yl)carbamimidoyl)phenoxy)propanoic acid]
- MIC (E. cloacae 700323): 32 µg/mL
- MIC [1]: 32 µg/mL
- MIC (P. aeruginosa 9027): 8 µg/mL
- MIC [2]: 64 µg/mL
- MIC (E. coli clinical isolate): 4 µg/mL
- MIC (A. baumannii 19606): 16 µg/mL
- MIC (K. pneumoniae 700603): 32 µg/mL
- MIC (E. coli 8739): 4 µg/mL
- MIC [3]: 32 µg/mL
- MIC [4]: 16 µg/mL

SMILES: Cc1sc(N)nc1/C(=N/O[C@@H](COc1ccc(C(=N)N[C@H]2CCCNC2)cc1)C(=O)O)C(=O)N[C@@H]1C(=O)N(OS(=O)(=O)O)C1(C)C [Example 5, (S)-2-((((Z)-1-(2-Amino-5-methylthiazol-4-yl)-2-(((S)-2,2-dimethyl-4-oxo-1-(sulfooxy)azetidin-3-yl)amino)-2-oxoethylidene)amino)oxy)-3-(4-(N-((S)-piperidin-3-yl)carbamimidoyl)phenoxy)propanoic acid]
- MIC (E. cloacae 700323): 32 µg/mL
- MIC [1]: 32 µg/mL
- MIC (P. aeruginosa 9027): 4 µg/mL
- MIC [2]: 64 µg/mL
- MIC (E. coli clinical isolate): 4 µg/mL
- MIC (A. baumannii 19606): 16 µg/mL
- MIC (K. pneumoniae 700603): 64 µg/mL
- MIC (E. coli 8739): 4 µg/mL
- MIC [3]: 32 µg/mL
- MIC [4]: 4 µg/mL
